Molecules are shown by their SMILES.

As a reminder, the EC50 is the midpoint of the concentration-response curve.

In the assay the target is T1, E297G variant of human ABCB11 (Homo sapiens, UniProt O95342, E297G).
T1 construct: expressed in transfected cells
T1 sequence (O95342 whole entry E297G): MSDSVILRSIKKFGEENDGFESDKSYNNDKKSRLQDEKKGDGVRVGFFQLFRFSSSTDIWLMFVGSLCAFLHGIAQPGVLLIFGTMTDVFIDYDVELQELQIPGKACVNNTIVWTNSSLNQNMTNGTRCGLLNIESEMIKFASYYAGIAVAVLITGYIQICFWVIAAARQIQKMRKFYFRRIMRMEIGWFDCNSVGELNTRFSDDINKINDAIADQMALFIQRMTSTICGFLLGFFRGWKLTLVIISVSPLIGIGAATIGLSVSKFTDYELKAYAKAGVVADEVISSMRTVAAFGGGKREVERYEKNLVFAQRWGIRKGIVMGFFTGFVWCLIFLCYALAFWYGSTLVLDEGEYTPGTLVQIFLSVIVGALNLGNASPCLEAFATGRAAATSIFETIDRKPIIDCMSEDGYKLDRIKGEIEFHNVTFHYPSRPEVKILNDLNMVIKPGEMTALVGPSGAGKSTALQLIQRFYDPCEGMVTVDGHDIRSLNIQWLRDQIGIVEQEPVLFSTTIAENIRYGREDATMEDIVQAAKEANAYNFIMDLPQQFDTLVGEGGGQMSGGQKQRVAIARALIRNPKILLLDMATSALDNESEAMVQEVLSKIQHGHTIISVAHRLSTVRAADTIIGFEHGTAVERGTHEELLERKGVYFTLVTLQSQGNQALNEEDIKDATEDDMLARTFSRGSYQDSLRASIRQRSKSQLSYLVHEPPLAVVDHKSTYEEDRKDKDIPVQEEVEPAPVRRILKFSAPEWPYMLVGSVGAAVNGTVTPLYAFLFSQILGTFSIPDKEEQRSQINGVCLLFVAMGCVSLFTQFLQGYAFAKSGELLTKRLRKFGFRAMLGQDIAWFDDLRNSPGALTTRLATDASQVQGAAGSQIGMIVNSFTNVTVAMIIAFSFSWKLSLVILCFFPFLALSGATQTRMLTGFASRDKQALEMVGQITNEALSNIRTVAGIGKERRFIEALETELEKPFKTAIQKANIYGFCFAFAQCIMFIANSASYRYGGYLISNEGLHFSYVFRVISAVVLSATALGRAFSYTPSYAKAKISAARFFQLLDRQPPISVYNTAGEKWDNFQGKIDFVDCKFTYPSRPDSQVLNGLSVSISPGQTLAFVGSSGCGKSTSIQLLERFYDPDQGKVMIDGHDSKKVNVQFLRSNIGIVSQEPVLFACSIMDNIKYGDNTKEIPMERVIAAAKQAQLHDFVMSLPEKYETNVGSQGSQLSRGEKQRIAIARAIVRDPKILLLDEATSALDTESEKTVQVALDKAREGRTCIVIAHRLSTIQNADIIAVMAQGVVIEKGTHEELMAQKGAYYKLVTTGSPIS
Briefly: ABCB11 E297G expression assay (HiBit lytic luminescence) in HEK-293/E297G cells. It counts as cell-based. The conditions noted are these: increase in expression of ABCB11 E297G, 24 hours treatment, top concentration 25 μM, class also includes Emax criterion, read-out: BSEP EC50. The text has this:
To assess activity against ABCB11 E297G, the compounds were screened in an assay measuring protein expression, using cells transfected with cDNA encoding HiBit-tagged ABCB11 E297G.
Here we describe an assay for measuring the expression of the E297G variant of human ABCB11 (henceforth referred to as ABCB11 E297G) and the use of this assay to measure the efficacy of compounds to increase the expression of ABCB11 E297G. The assay was designed to characterize the efficacy and potency of compounds to increase the expression of ABCB11 E297G by calculating an Emax and EC50 value. HEK-293 cells stably expressing E297G (HEK-293/E297G cells) were used for this assay and were maintained at 37° C. (5% CO2, humidified) in Eagle's Minimum Essential Medium supplemented with 10% fetal bovine serum and 1% Glutamine. For the assay, the HEK-293/E297G cells were seeded in black/transparent-bottom 384-well plates at 20,000 cells/well in 22.5 μl Opti-MEM (Thermofisher, product #11058021) media supplemented with 2.7% of fetal bovine serum (Gibco, product #16000044) and allowed to settle for 4 hours at 37° C. (5% CO2, humidified). Compound serial dilutions are prepared in Opti-MEM as four times (4×) the final concentration and using a dilution factor of 2.15. After the four h incubation period, 7.5 μL of the 4× dilutions are transferred to the assay plate.
Dose response curves include eight doses with the top final concentration at 25 μM in 0.75% DMSO. Liquid handling is performed in a robotic device equipped with a 384-tip head (Analytik Jena—CyBio Vario). After addition of compound treatment, cells are incubated for 24 hours at 37° C. (5% CO2, humidified). After the 24-hour treatment, plates are allowed to equilibrate for 30 minutes at room temperature. Using the Analytik Jena—CyBio Vario instrument, the volume of each well is reduced to 15 μl and 15 μl of HiBit lytic assay reagent (Promega, product #N3040), which is prepared according to manufacturer's instructions, is added back to each well. The plates are incubated at room temperature for additional 30 minutes and luminescent signal is acquired using a Hamamatsu FDSS 7000 EX plate-reader (20 reads, exposure time 0.2 seconds, gain 200).
Results are presented below in Table 3 for ABCB11 E297G.
A general note: The HiBiT peptide binds its large partner to form an active luciferase.
With `Cc1ccc(NC(=O)C2CCN(c3ccccn3)CC2)nc1-c1cn(C)c(=O)c2[nH]ccc12` [Compound I-12], the EC50 is 2.5 to 10 µM.
Under `Cc1ccc(NC(=O)c2ccc3c(c2)OCCN3C)nc1-c1cn(C)c(=O)c2[nH]ccc12` [Compound I-15] stands 2.5 to 10 µM.
Turning to `Cc1ccc(NC(=O)c2ccncn2)nc1-c1cn(C)c(=O)c2[nH]ccc12` [Compound I-24], the EC50 lay within 10 to 25 µM.
For `Cc1ccc(NC(=O)C2CCN(S(C)(=O)=O)CC2)nc1-c1cn(C)c(=O)c2[nH]ccc12` [Compound I-13] the value was 10 to 25 µM; for `Cc1ccc(NC(=O)c2cc3ccc(F)cc3n2C)nc1-c1cn(C)c(=O)c2[nH]ccc12` [Compound I-14], greater than 25 µM.
For `Cc1ccc(NC(=O)c2ccc(-n3cccn3)cc2)nc1-c1cn(C)c(=O)c2[nH]ccc12` [Compound I-23] the value was greater than 25 µM; for `Cc1ccc(NC(=O)c2cc(CC(C)C)nn2C)nc1-c1cn(C)c(=O)c2[nH]ccc12` [Compound I-8], less than 2.5 µM; for `Cc1ccc(NC(=O)C2CCCc3ccccc32)nc1-c1cn(C)c(=O)c2[nH]ccc12` (centres unmarked) [Compound I-176], less than 2.5 µM.
For `Cc1ccc(NC(=O)c2cnc(-c3ccccn3)nc2)nc1-c1cn(C)c(=O)c2[nH]ccc12` [Compound I-1] the value was 2.5 to 10 µM; for `Cc1ccc(NC(=O)c2cc(-c3ccccc3)no2)nc1-c1cn(C)c(=O)c2[nH]ccc12` [Compound I-19], greater than 25 µM; for `Cc1ccc(NC(=O)c2cc3n(n2)CCCC3)nc1-c1cn(C)c(=O)c2[nH]ccc12` [Compound I-27], 2.5 to 10 µM.
As for `Cc1ccc(NC(=O)c2ccc3c(ccn3C)c2)nc1-c1cn(C)c(=O)c2[nH]ccc12` [Compound I-20], the EC50 lay in the range of 2.5 to 10 µM.
Turning to `Cc1ccc(NC(=O)C2CCC(F)(F)C2)nc1-c1cn(C)c(=O)c2[nH]ccc12` (centres unmarked) [Compound I-17], the EC50 is less than 2.5 µM.
For `Cc1ccc(NC(=O)c2cnn(-c3ccccc3)c2C)nc1-c1cn(C)c(=O)c2[nH]ccc12` [Compound I-9] the value was greater than 25 µM.
Under `Cc1ccc(NC(=O)C2CCN(c3ccccc3)CC2)nc1-c1cn(C)c(=O)c2[nH]ccc12` [Compound I-11] stands less than 2.5 µM; under `Cc1ccc(NC(=O)c2cnn(-c3ccccc3F)c2)nc1-c1cn(C)c(=O)c2[nH]ccc12` [Compound I-3], greater than 25 µM; under `Cc1cnc2ncc(C(=O)Nc3ccc(C)c(-c4cn(C)c(=O)c5[nH]ccc45)n3)n2c1` [Compound I-10], greater than 25 µM.
Under `Cc1ccc(NC(=O)c2cnc(C(F)(F)F)s2)nc1-c1cn(C)c(=O)c2[nH]ccc12` [Compound I-7] stands greater than 25 µM; under `Cc1ccc(NC(=O)c2nc(-c3ccccc3)ns2)nc1-c1cn(C)c(=O)c2[nH]ccc12` [Compound I-4], greater than 25 µM.
On to `Cc1ccc(NC(=O)c2cccc3c2OC(C)(C)CC3)nc1-c1cn(C)c(=O)c2[nH]ccc12` [Compound I-6], for which the EC50 is 2.5 to 10 µM.
For `Cc1ccc(NC(=O)c2ccc3c(c2)n(C)c(=O)n3C)nc1-c1cn(C)c(=O)c2[nH]ccc12` [Compound I-18] the value was greater than 25 µM; for `Cc1ccc(NC(=O)c2nc3c(s2)CN(C)CC3)nc1-c1cn(C)c(=O)c2[nH]ccc12` [Compound I-16], 10 to 25 µM.
`Cc1ccc(NC(=O)c2ccc3cnccc3c2)nc1-c1cn(C)c(=O)c2[nH]ccc12` [Compound I-26]: the EC50 fell in the range of 2.5 to 10 µM.
Under `Cc1ccc(NC(=O)c2coc(N3CCOCC3)n2)nc1-c1cn(C)c(=O)c2[nH]ccc12` [Compound I-22] stands 2.5 to 10 µM.
As to `Cc1ccc(NC(=O)C2CCc3ccccc32)nc1-c1cn(C)c(=O)c2[nH]ccc12` (centres unmarked) [Compound I-177], the EC50 lay in the range of 2.5 to 10 µM.
For `Cc1ccc(NC(=O)[C@@H]2CCCN2C(C)C)nc1-c1cn(C)c(=O)c2[nH]ccc12` [Compound I-2] the value was 2.5 to 10 µM.
Turning to `Cc1ccc(NC(=O)c2ccc(C(F)(F)F)nc2)nc1-c1cn(C)c(=O)c2[nH]ccc12` [Compound I-5], the EC50 fell in the range of 2.5 to 10 µM.
Consider `CCOC(=O)N1CCC(C(=O)Nc2ccc(C)c(-c3cn(C)c(=O)c4[nH]ccc34)n2)CC1` [Compound I-25], for which the EC50 lay in the range of 2.5 to 10 µM.
Under `Cc1ccc(NC(=O)c2cnn(C3CCOCC3)c2)nc1-c1cn(C)c(=O)c2[nH]ccc12` [Compound I-21] stands 10 to 25 µM.
